Measured values as given in paper PMC12892976, “Alkylation-based optimization of antifungal FPPS inhibitors yields a potent, broad-spectrum lipophilic zoledronate derivative” (mBio, 2025).
Where two headings read alike, the source gives them in different places.

How the values were obtained:
eight fungal species [1] = assay: MIC/MFC summary across the eight fungal species of Table 1; format: cell-based
Procedure: The antifungal activity of these compounds was evaluated according to CLSI guidelines ([16]).

HEK-293T cells = assay: MTT reduction cytotoxicity assay; format: cell-based; conditions: Homo sapiens, HEK-293T, 72 h, HEK-293T, MTT, 72 h; read-out: HEK IC50
Saccharomyces cerevisiae [2] = assay: checkerboard drug interaction (FICI, MICc); format: cell-based; parameters: INH MICc / INH MICc (ITR:INH) / INH MICc (KET:INH) / INH MICc (FLC:INH): unit not given beside the values;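 also: simplified diagonal checkerboard screen pairing antifungals with FPPS inhibitors, FICI calculated under the Loewe additivity model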
Trichophyton rubrum [3] = assay: checkerboard drug interaction (FICI, MICc);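 also: simplified diagonal checkerboard screen pairing azole antifungals with FPPS inhibitors, FICI calculated under the Loewe additivity model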; format: cell-based; conditions: T. rubrum
Procedure: (§1) Drug interactions between antifungals and FPPS inhibitors were investigated using a simplified checkerboard diagonal screening method ([45]). […] FICIs were determined according to the Loewe additivity model ([17]).

Cryptococcus neoformans [4] = assay: MIC/MFC broth microdilution (CLSI); conditions: Cryptococcus neoformans;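 also: susceptibility testing followed the CLSI M27-Ed4 broth microdilution document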
Procedure: (§2) Antifungal susceptibility was determined by broth microdilution according to the CLSI guidelines described in M27-Ed4 ([16]). […] MFC was determined by back-plating drug-treated cultures from MIC broths onto SDA plates. The MFC was defined as the lowest concentration from which no colonies could be cultured.

Candida glabrata [5] = assay: MIC/MFC broth microdilution (CLSI); conditions: Nakaseomyces glabratus, CBS138;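 also: broth microdilution following CLSI M27-Ed4, MFC taken as the lowest drug level yielding no growth once MIC wells were subcultured on SDA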
Procedure: as §2

eight fungal species [6] = assay: checkerboard interaction with azoles, summary across the eight species; format: cell-based; conditions: geometric mean MIC in combination with azoles
Text: Synergy between lipophilic FPPS inhibitors and azole antifungals was investigated by determining the fractional inhibitory concentration index (FICI) (Fig. 2; Table S1 Fig. S1) ([17]). […]. Derivatives PLA9 and 11, and PDA9, 11, and 12 antagonized azoles in C. albicans, C. neoformans, and C. deuterogattii, yet were largely synergistic in C. glabrata and S. cerevisiae. […].

Saccharomyces cerevisiae [7] = assay: MIC/MFC broth microdilution (CLSI); format: cell-based; conditions: Saccharomyces cerevisiae S288c
Procedure: as §2

[8] = tested on: Cryptococcus deuterogattii; assay: checkerboard drug interaction (FICI, MICc);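 as to all read-outs here: simplified diagonal checkerboard screen pairing antifungal drugs with FPPS inhibitors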; format: cell-based; conditions: C. deuterogattii; for INH FD (MIC-MICc fold decrease): fold decrease of inhibitor MIC
Procedure: as §1

Aspergillus fumigatus [9] = assay: checkerboard drug interaction (FICI, MICc); format: cell-based;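 also: simplified diagonal checkerboard screen pairing antifungals with FPPS inhibitors against Aspergillus fumigatus, with FICI calculated under the Loewe additivity model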
Procedure: as §1

Aspergillus flavus [10] = assay: checkerboard drug interaction (FICI, MICc);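 also: simplified diagonal checkerboard screen pairing azole antifungals with FPPS inhibitors, FICI calculated under the Loewe additivity model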; format: cell-based; parameters: INH MICc (KET:INH) / INH MICc (FLC:INH): unit not given beside the values; conditions: A. flavus
Aspergillus fumigatus [11] = assay: MIC/MFC broth microdilution (CLSI); conditions: ATCC204305
Procedure: as §2

Candida albicans [12] = assay: MIC/MFC broth microdilution (CLSI); format: cell-based; conditions: Candida albicans SC5314
Procedure: as §2

Trichophyton rubrum [13] = assay: MIC/MFC broth microdilution (CLSI); conditions: Trichophyton rubrum
Procedure: as §2

Aspergillus flavus [14] = assay: MIC/MFC broth microdilution (CLSI); conditions: ATCC204304
Procedure: as §2

[15] = tested on: Cryptococcus deuterogattii; assay: MIC/MFC broth microdilution (CLSI); conditions: Cryptococcus deuterogattii;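 also: broth microdilution per CLSI M27-Ed4. MFC is the lowest concentration yielding no colonies when MIC broths are subcultured onto SDA plates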
Procedure: as §2

Candida glabrata [16] = assay: checkerboard drug interaction (FICI, MICc);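 as to all read-outs here: simplified diagonal checkerboard screen pairing antifungals with FPPS inhibitors, FICI calculated under the Loewe additivity model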; format: cell-based; conditions: C. glabrata; for INH FD (MIC-MICc fold decrease): fold decrease of inhibitor MIC
Procedure: as §1

Candida albicans [17] = assay: checkerboard drug interaction (FICI, MICc);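 as to all read-outs here: antifungal plus FPPS inhibitor combinations on Candida albicans tested by a simplified diagonal checkerboard screen, with FICI calculated under the Loewe additivity model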; format: cell-based; conditions: C. albicans; for INH FD (MIC-MICc fold decrease): fold decrease of inhibitor MIC
Procedure: as §1

Cryptococcus neoformans [18] = assay: checkerboard drug interaction (FICI, MICc);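 as to all read-outs here: antifungal plus FPPS inhibitor pairs tested against Cryptococcus neoformans by simplified diagonal checkerboard screening, FICI computed under the Loewe additivity model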; format: cell-based; conditions: C. neoformans; for INH FD (MIC-MICc fold decrease): fold decrease of inhibitor MIC
Procedure: as §1

[19] = Fractional Inhibitory Concentration Index, fluconazole + inhibitor
[20] = Fractional Inhibitory Concentration Index, itraconazole + inhibitor
[21] = Fractional Inhibitory Concentration Index, ketoconazole + inhibitor
[22] = MIC of the inhibitor in combination with fluconazole
[23] = MIC of the inhibitor in combination with itraconazole
[24] = MIC of the inhibitor in combination with ketoconazole
[25] = MIC-MICc fold decrease of fluconazole, negative = increase
[26] = MIC-MICc fold decrease of itraconazole, negative = increase
[27] = MIC-MICc fold decrease of ketoconazole, negative = increase
[28] = MIC-MICc fold decrease of the inhibitor, with fluconazole
[29] = MIC-MICc fold decrease of the inhibitor, with itraconazole
[30] = MIC-MICc fold decrease of the inhibitor, with ketoconazole
[31] = FLC:INH combination, MIC of the inhibitor in combination with FLC
[32] = FLC:INH combination, fold decrease of FLC MIC
[33] = ITR:INH combination, MIC of the inhibitor in combination with ITR
[34] = ITR:INH combination, fold decrease of ITR MIC
[35] = KET:INH combination, MIC of the inhibitor in combination with KET
[36] = KET:INH combination, fold decrease of KET MIC

CCCCCCCCCCCN1CCC[C@H]1C(=O)N[C@H](CC(=O)O)C(=O)O [PDA11]
0.75: FICI (KET:INH) (Aspergillus flavus [10]; [21])
78.3: GM fungal MICc (eight fungal species [6])
0.63: FICI (Candida glabrata [16]; FLC:INH combination)
0.28: FICI (Candida glabrata [16]; ITR:INH combination) | FICI (Candida glabrata [16]; KET:INH combination)
3: FICI (FLC:INH) (Trichophyton rubrum [3]; [19]) | FICI (KET:INH) (Trichophyton rubrum [3]; [21])
128: INH MICc (ITR:INH) (Saccharomyces cerevisiae [2]; [23]) | INH MICc [8, 35] | INH MICc (KET:INH) (Aspergillus fumigatus [9]; [24]) | INH FD (ITR:INH) (Aspergillus fumigatus [9]; [29]) | INH MICc (FLC:INH) (Aspergillus flavus [10]; [22]) | INH FD (MIC-MICc fold decrease) (Candida glabrata [16]; ITR:INH combination) | INH FD (MIC-MICc fold decrease) (Candida glabrata [16]; KET:INH combination) | INH MICc (Candida albicans [17]; [31]) | INH MICc (Candida albicans [17]; [33]) | INH MICc (Cryptococcus neoformans [18]; [35])
-2: FLC FD (FLC:INH) (Trichophyton rubrum [3]; [25]) | KET FD (KET:INH) (Trichophyton rubrum [3]; [27])
0.51: FICI (ITR:INH) (Aspergillus fumigatus [9]; [20])
256: INH MICc (FLC:INH) (Trichophyton rubrum [3]; [22]) | INH MICc (ITR:INH) (Trichophyton rubrum [3]; [23]) | INH MICc (KET:INH) (Trichophyton rubrum [3]; [24]) | INH MICc [8, 31] | INH MICc [8, 33] | INH MICc (FLC:INH) (Aspergillus fumigatus [9]; [22]) | INH MICc (ITR:INH) (Aspergillus flavus [10]; [23]) | INH MICc (Cryptococcus neoformans [18]; [31]) | INH MICc (Cryptococcus neoformans [18]; [33])
≥4: FICI ([8]; FLC:INH combination) | FICI ([8]; ITR:INH combination) | FICI (Candida albicans [17]; FLC:INH combination) | FICI (Candida albicans [17]; ITR:INH combination) | FICI (Candida albicans [17]; KET:INH combination) | FICI (Cryptococcus neoformans [18]; FLC:INH combination) | FICI (Cryptococcus neoformans [18]; ITR:INH combination) | FICI (Cryptococcus neoformans [18]; KET:INH combination)
32: INH FD (MIC-MICc fold decrease) (Candida glabrata [16]; FLC:INH combination)
< -4: ITR FD (MIC-MICc fold decrease) [8, 34] | FLC FD (MIC-MICc fold decrease) (Candida albicans [17]; [32]) | ITR FD (MIC-MICc fold decrease) (Candida albicans [17]; [34]) | KET FD (MIC-MICc fold decrease) (Candida albicans [17]; [36]) | FLC FD (MIC-MICc fold decrease) (Cryptococcus neoformans [18]; [32]) | ITR FD (MIC-MICc fold decrease) (Cryptococcus neoformans [18]; [34])
> 128 mg/L: MFC (eight fungal species [1]; across eight species, read-out: Geometric mean MFC) | MIC (eight fungal species [1]; geometric mean across eight species, read-out: GM fungal MIC) | MIC (eight fungal species [1]; read-out: Geometric mean MIC) | MFC (Cryptococcus neoformans [4]) | MIC (Cryptococcus neoformans [4]) | MFC (Candida glabrata [5]) | MIC (Candida glabrata [5]) | MFC (Saccharomyces cerevisiae [7]) | MIC (Saccharomyces cerevisiae [7]) | MFC (Aspergillus fumigatus [11]) | MIC (Aspergillus fumigatus [11]) | MFC (Candida albicans [12]) | MIC (Candida albicans [12]) | MFC (Trichophyton rubrum [13]) | MIC (Trichophyton rubrum [13]) | MFC (Aspergillus flavus [14]) | MIC (Aspergillus flavus [14]) | MFC [15] | MIC [15]
8: INH MICc (Candida glabrata [16]; [31])
1: ITR FD (ITR:INH) (Saccharomyces cerevisiae [2]; [26]) | ITR FD (ITR:INH) (Trichophyton rubrum [3]; [26]) | INH FD (FLC:INH) (Trichophyton rubrum [3]; [28]) | INH FD (ITR:INH) (Trichophyton rubrum [3]; [29]) | INH FD (KET:INH) (Trichophyton rubrum [3]; [30]) | INH FD (MIC-MICc fold decrease) ([8]; FLC:INH combination) | INH FD (MIC-MICc fold decrease) ([8]; ITR:INH combination) | FICI ([8]; KET:INH combination) | FLC FD (FLC:INH) (Aspergillus fumigatus [9]; [25]) | KET FD (KET:INH) (Aspergillus fumigatus [9]; [27]) | INH FD (FLC:INH) (Aspergillus fumigatus [9]; [28]) | FICI (FLC:INH) (Aspergillus flavus [10]; [19]) | ITR FD (ITR:INH) (Aspergillus flavus [10]; [26]) | INH FD (ITR:INH) (Aspergillus flavus [10]; [29]) | INH FD (MIC-MICc fold decrease) (Cryptococcus neoformans [18]; FLC:INH combination) | INH FD (MIC-MICc fold decrease) (Cryptococcus neoformans [18]; ITR:INH combination)
1.5: FICI (ITR:INH) (Saccharomyces cerevisiae [2]; [20]) | FICI (KET:INH) (Aspergillus fumigatus [9]; [21])
> 256 mg/L: IC50 (HEK-293T cells)
64: INH MICc (FLC:INH) (Saccharomyces cerevisiae [2]; [22]) | INH MICc (KET:INH) (Saccharomyces cerevisiae [2]; [24]) | INH MICc (KET:INH) (Aspergillus flavus [10]; [24]) | INH MICc (Candida albicans [17]; [35])
0.5: FICI (FLC:INH) (Saccharomyces cerevisiae [2]; [19]) | FICI (KET:INH) (Saccharomyces cerevisiae [2]; [21])
2: INH FD (ITR:INH) (Saccharomyces cerevisiae [2]; [29]) | FICI (ITR:INH) (Trichophyton rubrum [3]; [20]) | KET FD (MIC-MICc fold decrease) [8, 36] | INH FD (MIC-MICc fold decrease) ([8]; KET:INH combination) | FICI (FLC:INH) (Aspergillus fumigatus [9]; [19]) | INH MICc (ITR:INH) (Aspergillus fumigatus [9]; [23]) | ITR FD (ITR:INH) (Aspergillus fumigatus [9]; [26]) | INH FD (KET:INH) (Aspergillus fumigatus [9]; [30]) | FICI (ITR:INH) (Aspergillus flavus [10]; [20]) | FLC FD (FLC:INH) (Aspergillus flavus [10]; [25]) | KET FD (KET:INH) (Aspergillus flavus [10]; [27]) | INH FD (FLC:INH) (Aspergillus flavus [10]; [28]) | FLC FD (MIC-MICc fold decrease) (Candida glabrata [16]; [32]) | INH MICc (Candida glabrata [16]; [33]) | INH MICc (Candida glabrata [16]; [35]) | INH FD (MIC-MICc fold decrease) (Candida albicans [17]; FLC:INH combination) | INH FD (MIC-MICc fold decrease) (Candida albicans [17]; ITR:INH combination) | INH FD (MIC-MICc fold decrease) (Cryptococcus neoformans [18]; KET:INH combination)
-4: FLC FD (MIC-MICc fold decrease) [8, 32] | KET FD (MIC-MICc fold decrease) (Cryptococcus neoformans [18]; [36])
4: FLC FD (FLC:INH) (Saccharomyces cerevisiae [2]; [25]) | KET FD (KET:INH) (Saccharomyces cerevisiae [2]; [27]) | INH FD (FLC:INH) (Saccharomyces cerevisiae [2]; [28]) | INH FD (KET:INH) (Saccharomyces cerevisiae [2]; [30]) | INH FD (KET:INH) (Aspergillus flavus [10]; [30]) | ITR FD (MIC-MICc fold decrease) (Candida glabrata [16]; [34]) | KET FD (MIC-MICc fold decrease) (Candida glabrata [16]; [36]) | INH FD (MIC-MICc fold decrease) (Candida albicans [17]; KET:INH combination)
